Data reported in PMC12402854 (Angewandte Chemie (International Ed. in English), 2025).

Biological target: T1, Xeroderma pigmentosum type B (XPB) (Homo sapiens, UniProt P19447)
T1 sequence (P19447 1-782): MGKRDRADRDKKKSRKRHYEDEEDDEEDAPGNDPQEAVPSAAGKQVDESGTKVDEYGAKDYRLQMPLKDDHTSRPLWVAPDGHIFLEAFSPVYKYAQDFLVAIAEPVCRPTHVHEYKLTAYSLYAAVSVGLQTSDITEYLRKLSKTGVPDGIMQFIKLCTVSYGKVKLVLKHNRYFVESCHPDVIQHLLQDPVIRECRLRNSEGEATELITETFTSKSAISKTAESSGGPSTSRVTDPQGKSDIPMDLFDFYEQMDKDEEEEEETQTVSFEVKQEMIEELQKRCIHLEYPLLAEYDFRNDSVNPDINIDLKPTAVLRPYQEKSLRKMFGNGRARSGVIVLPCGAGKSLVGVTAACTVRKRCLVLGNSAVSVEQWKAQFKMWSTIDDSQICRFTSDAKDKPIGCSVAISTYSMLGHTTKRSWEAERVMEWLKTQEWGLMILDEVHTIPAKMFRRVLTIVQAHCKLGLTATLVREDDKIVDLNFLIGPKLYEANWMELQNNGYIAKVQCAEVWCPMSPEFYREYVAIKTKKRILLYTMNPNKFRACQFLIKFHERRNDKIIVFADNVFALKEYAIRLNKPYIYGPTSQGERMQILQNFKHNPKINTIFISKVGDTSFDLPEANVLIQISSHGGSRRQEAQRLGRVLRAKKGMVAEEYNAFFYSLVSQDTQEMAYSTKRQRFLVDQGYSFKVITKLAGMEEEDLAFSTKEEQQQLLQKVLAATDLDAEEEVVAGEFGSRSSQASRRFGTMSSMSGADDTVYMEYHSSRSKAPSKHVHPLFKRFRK
Test: live-cell covalent labelling, click to TAMRA, in-gel fluorescence
Format: cell-based

triptolide-alkyne [TL-alk]
EC50: 92.6 nM
